Assay results as given in patent publication US20090299044A1 (priority 2006, published 2009).
Bridge positions count the residues as written; N and C are the ends. Peptide text beside a SMILES is read from it.

Experiments:
human Kv1.3 (CHO) = target: T1, human Kv1.3 (CHO) (Homo sapiens, UniProt P22001); experiment: cell-based
T1 construct: expressed in transfected cells; host or cells: CHO

human Kv1.1 (HEK293) = target: T2, human Kv1.1 (HEK293) (Homo sapiens, UniProt Q09470); experiment: cell-based
T2 construct: expressed in transfected cells; host or cells: HEK293
T2 sequence (Q09470 whole entry): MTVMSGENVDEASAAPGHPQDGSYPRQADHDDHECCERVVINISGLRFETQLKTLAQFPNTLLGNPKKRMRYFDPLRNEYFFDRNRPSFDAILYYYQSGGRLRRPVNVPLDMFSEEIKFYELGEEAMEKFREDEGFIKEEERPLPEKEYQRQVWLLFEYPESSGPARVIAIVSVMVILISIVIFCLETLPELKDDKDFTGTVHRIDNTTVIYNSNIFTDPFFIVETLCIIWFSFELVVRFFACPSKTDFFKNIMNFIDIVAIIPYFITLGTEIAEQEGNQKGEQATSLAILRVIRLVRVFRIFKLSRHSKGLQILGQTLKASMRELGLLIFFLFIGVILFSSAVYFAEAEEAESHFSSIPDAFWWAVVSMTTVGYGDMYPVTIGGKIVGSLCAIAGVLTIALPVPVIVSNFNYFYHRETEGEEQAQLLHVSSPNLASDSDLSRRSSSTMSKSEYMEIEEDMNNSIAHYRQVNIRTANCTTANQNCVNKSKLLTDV

T1 sequence (P22001 whole entry): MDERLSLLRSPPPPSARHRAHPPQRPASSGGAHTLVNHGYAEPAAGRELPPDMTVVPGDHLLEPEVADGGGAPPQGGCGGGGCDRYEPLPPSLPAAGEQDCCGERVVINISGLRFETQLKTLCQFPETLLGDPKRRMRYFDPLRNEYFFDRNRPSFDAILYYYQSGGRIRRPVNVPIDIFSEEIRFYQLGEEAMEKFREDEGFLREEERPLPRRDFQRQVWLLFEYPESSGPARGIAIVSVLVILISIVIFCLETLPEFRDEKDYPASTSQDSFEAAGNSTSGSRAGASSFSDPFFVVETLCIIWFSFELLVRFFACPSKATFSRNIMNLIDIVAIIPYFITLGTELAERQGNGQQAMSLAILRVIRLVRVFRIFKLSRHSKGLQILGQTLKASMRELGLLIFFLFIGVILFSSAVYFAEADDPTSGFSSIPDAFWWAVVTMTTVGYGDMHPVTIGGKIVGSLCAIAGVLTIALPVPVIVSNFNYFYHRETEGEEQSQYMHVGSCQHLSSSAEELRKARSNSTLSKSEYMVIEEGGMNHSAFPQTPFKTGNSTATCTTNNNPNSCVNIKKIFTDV

CC[C@H](C)[C@@H]1NC(=O)[C@H](CCCCN)NC(=O)[C@@H](NC(=O)[C@H](CCCCN)NC(=O)[C@@H](NC(=O)[C@H](CC(N)=O)NC(=O)[C@@H](NC(=O)[C@@H](NC(=O)[C@@H](NC(=O)CN)C(C)C)[C@@H](C)CC)[C@@H](C)CC)C(C)C)CSSC[C@@H]2NC(=O)[C@H](CCCCN)NC(=O)CNC(=O)[C@H](CCCNC(=N)N)NC(=O)[C@H](CCCNC(=N)N)NC(=O)[C@H](CCSC)NC(=O)CNC(=O)[C@H](C)NC(=O)[C@H](CCCCN)NC(=O)[C@H](CCCCN)NC(=O)[C@@H]3CSSC[C@@H](C(=O)N[C@H](C(=O)N4CCC[C@H]4C(=O)N[C@@H](CCCCN)C(=O)O)[C@@H](C)O)NC(=O)[C@H](Cc4c[nH]cn4)NC(=O)[C@H](CSSC[C@H](NC(=O)[C@H](CCC(N)=O)NC(=O)[C@H](CCCNC(=N)N)NC(=O)[C@H](CO)NC1=O)C(=O)N[C@@H](CC(C)C)C(=O)N[C@@H](CCC(=O)O)C(=O)N1CCC[C@H]1C(=O)N3)NC(=O)[C@H](CCCCN)NC(=O)CNC(=O)[C@H](CC(N)=O)NC(=O)[C@H](CCSC)NC2=O [F25R] (H-GVIINVKCKISRQCLEPCKKAGMRRGKCMNGKCHCTPK-OH; disulfide 8-28, 14-33, 18-35)
IC50 (human Kv1.3 (CHO)): > 3.33 nM
IC50 (human Kv1.1 (HEK293)): 0.817 nM

CC[C@H](C)[C@@H]1NC(=O)[C@H](CCCCN)NC(=O)[C@@H](NC(=O)[C@H](CCCCN)NC(=O)[C@@H](NC(=O)[C@H](CC(N)=O)NC(=O)[C@@H](NC(=O)[C@@H](NC(=O)[C@@H](NC(=O)[C@H](C)N)C(C)C)[C@@H](C)CC)[C@@H](C)CC)C(C)C)CSSC[C@@H]2NC(=O)[C@H](CCCCN)NC(=O)CNC(=O)[C@H](Cc3ccccc3)NC(=O)[C@H](CCCNC(=N)N)NC(=O)[C@H](CCSC)NC(=O)CNC(=O)[C@H](C)NC(=O)[C@H](CCCCN)NC(=O)[C@H](CCCCN)NC(=O)[C@@H]3CSSC[C@@H](C(=O)N[C@H](C(=O)N4CCC[C@H]4C(=O)N[C@@H](CCCCN)C(=O)O)[C@@H](C)O)NC(=O)[C@H](Cc4c[nH]cn4)NC(=O)[C@H](CSSC[C@H](NC(=O)[C@H](CCC(N)=O)NC(=O)[C@H](CCCNC(=N)N)NC(=O)[C@H](CO)NC1=O)C(=O)N[C@@H](CC(C)C)C(=O)N[C@@H](CCC(=O)O)C(=O)N1CCC[C@H]1C(=O)N3)NC(=O)[C@H](CCCCN)NC(=O)CNC(=O)[C@H](CC(N)=O)NC(=O)[C@H](CCSC)NC2=O [G1A] (H-AVIINVKCKISRQCLEPCKKAGMRFGKCMNGKCHCTPK-OH; disulfide 8-28, 14-33, 18-35)
IC50 (human Kv1.3 (CHO)): 0.0411 nM
IC50 (human Kv1.1 (HEK293)): 0.0139 nM

CC[C@H](C)[C@@H]1NC(=O)[C@H](CCCCN)NC(=O)[C@@H](NC(=O)[C@H](CCCCN)NC(=O)[C@@H](NC(=O)[C@H](CC(N)=O)NC(=O)[C@@H](NC(=O)[C@@H](NC(=O)[C@@H](NC(=O)[C@@H](N)CCC(=O)O)C(C)C)[C@@H](C)CC)[C@@H](C)CC)C(C)C)CSSC[C@@H]2NC(=O)[C@H](CCCCN)NC(=O)CNC(=O)[C@H](Cc3ccccc3)NC(=O)[C@H](CCCNC(=N)N)NC(=O)[C@H](CCSC)NC(=O)CNC(=O)[C@H](C)NC(=O)[C@H](CCCCN)NC(=O)[C@H](CCCCN)NC(=O)[C@@H]3CSSC[C@@H](C(=O)N[C@H](C(=O)N4CCC[C@H]4C(=O)N[C@@H](CCCCN)C(=O)O)[C@@H](C)O)NC(=O)[C@H](Cc4c[nH]cn4)NC(=O)[C@H](CSSC[C@H](NC(=O)[C@H](CCC(N)=O)NC(=O)[C@H](CCCNC(=N)N)NC(=O)[C@H](CO)NC1=O)C(=O)N[C@@H](CC(C)C)C(=O)N[C@@H](CCC(=O)O)C(=O)N1CCC[C@H]1C(=O)N3)NC(=O)[C@H](CCCCN)NC(=O)CNC(=O)[C@H](CC(N)=O)NC(=O)[C@H](CCSC)NC2=O [G1E] (H-EVIINVKCKISRQCLEPCKKAGMRFGKCMNGKCHCTPK-OH; disulfide 8-28, 14-33, 18-35)
IC50 (human Kv1.3 (CHO)): 0.186 nM
IC50 (human Kv1.1 (HEK293)): 0.051 nM

CC[C@H](C)[C@@H]1NC(=O)[C@H](CCCCN)NC(=O)[C@@H](NC(=O)[C@H](CCCCN)NC(=O)[C@@H](NC(=O)[C@H](CC(N)=O)NC(=O)[C@@H](NC(=O)[C@@H](NC(=O)[C@@H](NC(=O)[C@@H](N)CCCNC(=N)N)C(C)C)[C@@H](C)CC)[C@@H](C)CC)C(C)C)CSSC[C@@H]2NC(=O)[C@H](CCCCN)NC(=O)CNC(=O)[C@H](Cc3ccccc3)NC(=O)[C@H](CCCNC(=N)N)NC(=O)[C@H](CCSC)NC(=O)CNC(=O)[C@H](C)NC(=O)[C@H](CCCCN)NC(=O)[C@H](CCCCN)NC(=O)[C@@H]3CSSC[C@@H](C(=O)N[C@H](C(=O)N4CCC[C@H]4C(=O)N[C@@H](CCCCN)C(=O)O)[C@@H](C)O)NC(=O)[C@H](Cc4c[nH]cn4)NC(=O)[C@H](CSSC[C@H](NC(=O)[C@H](CCC(N)=O)NC(=O)[C@H](CCCNC(=N)N)NC(=O)[C@H](CO)NC1=O)C(=O)N[C@@H](CC(C)C)C(=O)N[C@@H](CCC(=O)O)C(=O)N1CCC[C@H]1C(=O)N3)NC(=O)[C@H](CCCCN)NC(=O)CNC(=O)[C@H](CC(N)=O)NC(=O)[C@H](CCSC)NC2=O [G1R] (H-RVIINVKCKISRQCLEPCKKAGMRFGKCMNGKCHCTPK-OH; disulfide 8-28, 14-33, 18-35)
IC50 (human Kv1.3 (CHO)): 0.0688 nM
IC50 (human Kv1.1 (HEK293)): 0.00991 nM

CC[C@H](C)[C@@H]1NC(=O)[C@H](CCCCN)NC(=O)[C@@H](NC(=O)[C@H](CCCCN)NC(=O)[C@@H](NC(=O)[C@H](CC(N)=O)NC(=O)[C@@H](NC(=O)[C@@H](NC(=O)[C@@H](NC(=O)CN)C(C)C)[C@@H](C)CC)[C@@H](C)CC)C(C)C)CSSC[C@@H]2NC(=O)[C@H](CCCCN)NC(=O)CNC(=O)[C@H](Cc3ccccc3)NC(=O)[C@H](CCCNC(=N)N)NC(=O)[C@H](CCSC)NC(=O)[C@H](C)NC(=O)[C@H](C)NC(=O)[C@H](CCCCN)NC(=O)[C@H](CCCCN)NC(=O)[C@@H]3CSSC[C@@H](C(=O)N[C@H](C(=O)N4CCC[C@H]4C(=O)N[C@@H](CCCCN)C(=O)O)[C@@H](C)O)NC(=O)[C@H](Cc4c[nH]cn4)NC(=O)[C@H](CSSC[C@H](NC(=O)[C@H](CCC(N)=O)NC(=O)[C@H](CCCNC(=N)N)NC(=O)[C@H](CO)NC1=O)C(=O)N[C@@H](CC(C)C)C(=O)N[C@@H](CCC(=O)O)C(=O)N1CCC[C@H]1C(=O)N3)NC(=O)[C@H](CCCCN)NC(=O)CNC(=O)[C@H](CC(N)=O)NC(=O)[C@H](CCSC)NC2=O [G22A] (H-GVIINVKCKISRQCLEPCKKAAMRFGKCMNGKCHCTPK-OH; disulfide 8-28, 14-33, 18-35)
IC50 (human Kv1.3 (CHO)): > 3 nM
IC50 (human Kv1.1 (HEK293)): > 3 nM

CC[C@H](C)[C@@H]1NC(=O)[C@H](CCCCN)NC(=O)[C@@H](NC(=O)[C@H](CCCCN)NC(=O)[C@@H](NC(=O)[C@H](CC(N)=O)NC(=O)[C@@H](NC(=O)[C@@H](NC(=O)[C@@H](NC(=O)CN)C(C)C)[C@@H](C)CC)[C@@H](C)CC)C(C)C)CSSC[C@@H]2NC(=O)[C@H](CCCCN)NC(=O)CNC(=O)[C@H](Cc3ccccc3)NC(=O)[C@H](CCCNC(=N)N)NC(=O)[C@H](CCSC)NC(=O)[C@H](CCC(=O)O)NC(=O)[C@H](C)NC(=O)[C@H](CCCCN)NC(=O)[C@H](CCCCN)NC(=O)[C@@H]3CSSC[C@@H](C(=O)N[C@H](C(=O)N4CCC[C@H]4C(=O)N[C@@H](CCCCN)C(=O)O)[C@@H](C)O)NC(=O)[C@H](Cc4c[nH]cn4)NC(=O)[C@H](CSSC[C@H](NC(=O)[C@H](CCC(N)=O)NC(=O)[C@H](CCCNC(=N)N)NC(=O)[C@H](CO)NC1=O)C(=O)N[C@@H](CC(C)C)C(=O)N[C@@H](CCC(=O)O)C(=O)N1CCC[C@H]1C(=O)N3)NC(=O)[C@H](CCCCN)NC(=O)CNC(=O)[C@H](CC(N)=O)NC(=O)[C@H](CCSC)NC2=O [G22E] (H-GVIINVKCKISRQCLEPCKKAEMRFGKCMNGKCHCTPK-OH; disulfide 8-28, 14-33, 18-35)
IC50 (human Kv1.3 (CHO)): 0.0139 nM
IC50 (human Kv1.1 (HEK293)): 0.00256 nM

CC[C@H](C)[C@@H]1NC(=O)[C@H](CCCCN)NC(=O)[C@@H](NC(=O)[C@H](CCCCN)NC(=O)[C@@H](NC(=O)[C@H](CC(N)=O)NC(=O)[C@@H](NC(=O)[C@@H](NC(=O)[C@@H](NC(=O)CN)C(C)C)[C@@H](C)CC)[C@@H](C)CC)C(C)C)CSSC[C@@H]2NC(=O)[C@H](CCCCN)NC(=O)CNC(=O)[C@H](Cc3ccccc3)NC(=O)[C@H](CCCNC(=N)N)NC(=O)[C@H](CCSC)NC(=O)[C@H](CCCNC(=N)N)NC(=O)[C@H](C)NC(=O)[C@H](CCCCN)NC(=O)[C@H](CCCCN)NC(=O)[C@@H]3CSSC[C@@H](C(=O)N[C@H](C(=O)N4CCC[C@H]4C(=O)N[C@@H](CCCCN)C(=O)O)[C@@H](C)O)NC(=O)[C@H](Cc4c[nH]cn4)NC(=O)[C@H](CSSC[C@H](NC(=O)[C@H](CCC(N)=O)NC(=O)[C@H](CCCNC(=N)N)NC(=O)[C@H](CO)NC1=O)C(=O)N[C@@H](CC(C)C)C(=O)N[C@@H](CCC(=O)O)C(=O)N1CCC[C@H]1C(=O)N3)NC(=O)[C@H](CCCCN)NC(=O)CNC(=O)[C@H](CC(N)=O)NC(=O)[C@H](CCSC)NC2=O [G22R] (H-GVIINVKCKISRQCLEPCKKARMRFGKCMNGKCHCTPK-OH; disulfide 8-28, 14-33, 18-35)
IC50 (human Kv1.3 (CHO)): 0.0237 nM
IC50 (human Kv1.1 (HEK293)): 0.00349 nM

CC[C@H](C)[C@@H]1NC(=O)[C@H](CCCCN)NC(=O)[C@@H](NC(=O)[C@H](CCCCN)NC(=O)[C@@H](NC(=O)[C@H](CC(N)=O)NC(=O)[C@@H](NC(=O)[C@@H](NC(=O)[C@@H](NC(=O)CN)C(C)C)[C@@H](C)CC)[C@@H](C)CC)C(C)C)CSSC[C@@H]2NC(=O)[C@H](CCCCN)NC(=O)[C@H](C)NC(=O)[C@H](Cc3ccccc3)NC(=O)[C@H](CCCNC(=N)N)NC(=O)[C@H](CCSC)NC(=O)CNC(=O)[C@H](C)NC(=O)[C@H](CCCCN)NC(=O)[C@H](CCCCN)NC(=O)[C@@H]3CSSC[C@@H](C(=O)N[C@H](C(=O)N4CCC[C@H]4C(=O)N[C@@H](CCCCN)C(=O)O)[C@@H](C)O)NC(=O)[C@H](Cc4c[nH]cn4)NC(=O)[C@H](CSSC[C@H](NC(=O)[C@H](CCC(N)=O)NC(=O)[C@H](CCCNC(=N)N)NC(=O)[C@H](CO)NC1=O)C(=O)N[C@@H](CC(C)C)C(=O)N[C@@H](CCC(=O)O)C(=O)N1CCC[C@H]1C(=O)N3)NC(=O)[C@H](CCCCN)NC(=O)CNC(=O)[C@H](CC(N)=O)NC(=O)[C@H](CCSC)NC2=O [G26A] (H-GVIINVKCKISRQCLEPCKKAGMRFAKCMNGKCHCTPK-OH; disulfide 8-28, 14-33, 18-35)
IC50 (human Kv1.3 (CHO)): 0.711 nM
IC50 (human Kv1.1 (HEK293)): 0.733 nM
